SMILES strings stand for the structures. Values joined by “and” are separate entries in the source; they are usually repeats but may differ in a detail not shown here. Identical values can stand only once. Inconclusive results and toxic doses are left out.

This is an account of results in PubChem BioAssay AID330 (DTP/NCI, 2004).

This assay has as its system P388 leukemia ip, CD2F1 mice, survival T/C. Nature of the assay: NCI In Vivo Anticancer Drug Screen. Data for tumor model P388 Leukemia (intraperitoneal) in CD2F1 (CDF1) mice. To be noted: endpoint: median survival time, higher = longer survival. A digest of the protocol:
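Mice carrying the transplanted tumor received test compound or vehicle. Survival was recorded in each group, and the value is the treated-group measurement divided by that of the vehicle-treated control group.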

Where [1] appears, read: dose: 25.0 mg/kg/injection, schedule: Q01DX009 (ip), vehicle: saline with Tween-80.
Setting [2] is: dose: 50.0 mg/kg/injection, schedule: Q01DX009 (ip), vehicle: saline with Tween-80.
Setting [3] is: dose: 100.0 mg/kg/injection, schedule: Q01DX009 (ip), vehicle: saline with Tween-80.
Setting [4] is: dose: 200.0 mg/kg/injection, schedule: Q01DX009 (ip), vehicle: saline with Tween-80.
Where [5] appears, read: dose: 12.5 mg/kg/injection, schedule: Q01DX009 (ip), vehicle: saline with Tween-80.
Setting [6] is: dose: 100.0 mg/kg/injection, schedule: Q04DX003 (ip), vehicle: saline with Tween-80.
Setting [7] is: dose: 50.0 mg/kg/injection, schedule: Q01DX005 (ip), vehicle: Klucel (hydroxypropylcellulose) (HPC).
The mark [8] stands for this setting: dose: 50.0 mg/kg/injection, schedule: Q01DX009 (ip), vehicle: Klucel (hydroxypropylcellulose) (HPC).
Where [9] appears, read: dose: 100.0 mg/kg/injection, schedule: Q01DX009 (ip), vehicle: Klucel (hydroxypropylcellulose) (HPC).

As to `O=c1ccc(=O)c2c(=O)c3cc4[nH]c5ccccc5[nH]c4cc3c(=O)c12`, the T/C runs as follows: under setting [1], 94 % of control; under setting [2], 92 % of control; under setting [3], 88 % of control.
With `CC(Br)C(=O)c1ccc(OCc2ccccc2)cc1` (configuration not stated), the T/C is 110 % of control under setting [2], 124 % of control under setting [3] and 121 % of control under setting [4].
`COc1ccc(C(=NCCc2ccccc2)c2ccccc2)c(O)c1`: the T/C was 100 % of control (dose: 100.0 mg/kg/injection, schedule: Q04DX002 (ip), vehicle: saline with Tween-80); 98 % of control (dose: 200.0 mg/kg/injection, schedule: Q04DX002 (ip), vehicle: saline with Tween-80); 100 % of control (dose: 400.0 mg/kg/injection, schedule: Q04DX002 (ip), vehicle: saline with Tween-80).
Consider `N#Cc1ncc(-c2ccccc2)nc1Cl`, for which the T/C reads like this: (dose: 6.25 mg/kg/injection, schedule: Q01DX009 (ip), vehicle: saline with Tween-80) 100 % of control; under setting [5], 104 % of control; under setting [1], 100 % of control; under setting [2], 110 % of control; (dose: 50.0 mg/kg/injection, schedule: Q04DX003 (ip), vehicle: saline with Tween-80) 100 % of control; under setting [3], 120 % of control. In addition, the T/C runs as follows: under setting [6], 105 % of control; (dose: 200.0 mg/kg/injection, schedule: Q04DX003 (ip), vehicle: saline with Tween-80) 100 % of control.
Consider `O/C(=C(\c1ccccc1)n1ncc2c1OCCC2)c1ccccc1`, for which the T/C is 94 % of control (dose: 50.0 mg/kg/injection, schedule: Q01DX001 (ip), vehicle: Klucel (hydroxypropylcellulose) (HPC)) and 95 % of control (dose: 100.0 mg/kg/injection, schedule: Q01DX001 (ip), vehicle: Klucel (hydroxypropylcellulose) (HPC)).
In the case of `CC(=O)OCc1c(-c2ccccc2)c(=O)c1=O`, the T/C is 100 % of control (dose: 15.0 mg/kg/injection, schedule: Q01DX005 (ip), vehicle: saline with Tween-80); 103 % of control (dose: 30.0 mg/kg/injection, schedule: Q01DX005 (ip), vehicle: saline with Tween-80); 108 % of control (dose: 60.0 mg/kg/injection, schedule: Q01DX005 (ip), vehicle: Klucel (hydroxypropylcellulose) (HPC)); 106 % of control (dose: 60.0 mg/kg/injection, schedule: Q01DX005 (ip), vehicle: saline with Tween-80).
For the compound `COC(=O)/C=C(\C)NC(=NC(C)(C)C)c1ccccc1`, the T/C reads like this: under setting [2], 98 % of control; under setting [3], 101 % of control; under setting [4], 94 % of control.
On to `CCCCCCCCCCC(CCCCCC)C(=O)O` (configuration not stated), for which the T/C reads like this: (dose: 75.0 mg/kg/injection, schedule: Q01DX001 (ip), vehicle: saline with Tween-80) 104 % of control; (dose: 150.0 mg/kg/injection, schedule: Q01DX001 (ip), vehicle: saline with Tween-80) 104 % of control; (dose: 300.0 mg/kg/injection, schedule: Q01DX001 (ip), vehicle: saline with Tween-80) 100 % of control.
For `COc1ccc(/C=C2\CCN=C2c2ccccc2)cc1OC`, the T/C runs as follows: under setting [7], 101 % of control; (dose: 100.0 mg/kg/injection, schedule: Q01DX005 (ip), vehicle: Klucel (hydroxypropylcellulose) (HPC)) 97 % of control; (dose: 200.0 mg/kg/injection, schedule: Q01DX005 (ip), vehicle: Klucel (hydroxypropylcellulose) (HPC)) 96 % of control.
On to `CN(C)CCCN1c2ccccc2Sc2ccc(C(F)(F)F)cc21`, for which the T/C under setting [5] was 123 % of control.
As to `CCCCCCC(=O)NC1=C(N2CC2)C(=O)C(NC(=O)CCCCCC)=C(N2CC2)C1=O`, the T/C is, setting by setting: (dose: 12.5 mg/kg/injection, schedule: Q04DX003 (ip), vehicle: saline with Tween-80) 100 % of control; (dose: 25.0 mg/kg/injection, schedule: Q04DX003 (ip), vehicle: saline with Tween-80) 109 % of control; under setting [3], 245 % of control; under setting [6], 159 % of control; (dose: 150.0 mg/kg/injection, schedule: Q04DX003 (ip), vehicle: saline with Tween-80) 195 % of control; under setting [4], 120 % of control.
`CCc1cc(C2C(=O)c3ccccc3C2=O)cc(CC)c1O`: the T/C is 107 % of control (dose: 100.0 mg/kg/injection, schedule: Q04DX002 (ip), vehicle: saline); 105 % of control (dose: 200.0 mg/kg/injection, schedule: Q04DX002 (ip), vehicle: saline); 110 % of control (dose: 400.0 mg/kg/injection, schedule: Q04DX002 (ip), vehicle: saline).
Turning to `CCC(=O)C1(C)OC1C(C)CC(C)C1OC(=O)CC2(O)CC=C(C)C(O2)/C(C)=C/CCCC(OC2CC(OC(N)=O)C(O)C(C)O2)/C=C/C(C)C(O)C1C` (configuration not stated), the T/C by setting is: (dose: 6.2 mg/kg/injection, schedule: Q01DX005 (ip), vehicle: Klucel (hydroxypropylcellulose) (HPC)) 109 % of control; (dose: 12.5 mg/kg/injection, schedule: Q01DX005 (ip), vehicle: Klucel (hydroxypropylcellulose) (HPC)) 98 % of control; (dose: 25.0 mg/kg/injection, schedule: Q01DX005 (ip), vehicle: Klucel (hydroxypropylcellulose) (HPC)) 103 % of control; under setting [7], 108 % of control.
For `CC(=O)C1CCC=CC1Sc1ccccc1` (configuration not stated), the T/C reads like this: under setting [8], 103 % of control; (dose: 100.0 mg/kg/injection, schedule: Q01DX001 (ip), vehicle: saline) 93 % of control; under setting [9], 96 % of control; (dose: 200.0 mg/kg/injection, schedule: Q01DX001 (ip), vehicle: saline) 101 % of control; (dose: 200.0 mg/kg/injection, schedule: Q01DX009 (ip), vehicle: Klucel (hydroxypropylcellulose) (HPC)) 121 % of control; (dose: 400.0 mg/kg/injection, schedule: Q01DX001 (ip), vehicle: saline) 98 % of control.
In the case of `Cc1cc(C)n2nc(CC#N)c(C#N)c2n1`, the T/C is 109 % of control (dose: 12.5 mg/kg/injection, schedule: Q01DX009 (ip), vehicle: Klucel (hydroxypropylcellulose) (HPC)); 100 % of control and 107 % of control and 97 % of control (dose: 25.0 mg/kg/injection, schedule: Q01DX009 (ip), vehicle: Klucel (hydroxypropylcellulose) (HPC)); 100 % of control and 105 % of control and 109 % of control under setting [8]; 123 % of control and 94 % of control and 97 % of control under setting [9].
Regarding `NS(=O)(=O)c1cc2c(cc1Cl)NC(CCC(=O)O)=NS2(=O)=O`, the T/C reads like this: (dose: 12.5 mg/kg/injection, schedule: Q01DX009 (ip), vehicle: distilled water + Tween-80) 93 % of control; (dose: 25.0 mg/kg/injection, schedule: Q01DX009 (ip), vehicle: distilled water + Tween-80) 102 % of control; (dose: 25.0 mg/kg/injection, schedule: Q01DX009 (ip), vehicle: other) 92 % of control; (dose: 50.0 mg/kg/injection, schedule: Q01DX009 (ip), vehicle: distilled water + Tween-80) 98 % of control; (dose: 50.0 mg/kg/injection, schedule: Q01DX009 (ip), vehicle: other) 90 % of control; (dose: 100.0 mg/kg/injection, schedule: Q01DX009 (ip), vehicle: distilled water + Tween-80) 102 % of control. In addition, the T/C (dose: 100.0 mg/kg/injection, schedule: Q01DX009 (ip), vehicle: other) was 90 % of control; the T/C (dose: 200.0 mg/kg/injection, schedule: Q01DX009 (ip), vehicle: distilled water + Tween-80) is 102 % of control; the T/C (dose: 400.0 mg/kg/injection, schedule: Q01DX009 (ip), vehicle: distilled water + Tween-80) is 98 % of control; the T/C (dose: 400.0 mg/kg/injection, schedule: Q01DX009 (ip), vehicle: other) was 97 % of control.
For `CCOP(=O)(CS(=O)CCC1(C)NC(=O)NC1=O)OCC` (configuration not stated), the T/C runs as follows: (dose: 50.0 mg/kg/injection, schedule: Q01DX005 (ip), vehicle: saline) 100 % of control; (dose: 100.0 mg/kg/injection, schedule: Q01DX005 (ip), vehicle: saline) 101 % of control; (dose: 200.0 mg/kg/injection, schedule: Q01DX005 (ip), vehicle: saline) 103 % of control.
In the case of `CCc1ccc(NC(=O)/C=C\C(=O)O)cc1`, the T/C (dose: 50.0 mg/kg/injection, schedule: Q01DX005 (ip), vehicle: saline with Tween-80) was 98 % of control; the T/C (dose: 100.0 mg/kg/injection, schedule: Q01DX005 (ip), vehicle: saline with Tween-80) was 95 % of control; the T/C (dose: 200.0 mg/kg/injection, schedule: Q01DX005 (ip), vehicle: saline with Tween-80) was 90 % of control.
